Some test systems named below: BT-549 breast; CAKI-1 renal; DU-145 prostate; EKVX NSCLC; HOP-62 NSCLC; IGROV1 ovarian; MDA-MB-435; NCI-H460 lung; RPMI-8226 leukemia; SK-MEL-2 melanoma; SR leukemia; RXF 393 renal.
Experiment in all cases: growth of human tumour cells (NCI), 48 h

The values that follow come from PubChem BioAssay (NCI).

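96-well plates; 48 h exposure; 5 concentrations. Endpoints by linear interpolation between flanking doses. Not reached: highest tested concentration assigned. Definition used: TGI = concentration required for complete inhibition of growth.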 Bounds are passed on as bounds.

Consider `CCC1OC2C(CC=C(C)C)=C3OC(C)(O)C(C)(CC)C(OC(=O)c4ccccc4)C3=C3OC(=O)C=C1C32` (configuration not stated), for which the TGI is 47.7 µM in the assay on BT-549 breast; more than 100 µM in the assay with CAKI-1 renal; more than 100 µM in the assay on DU-145 prostate; more than 100 µM in the assay with EKVX NSCLC; more than 100 µM in the assay with HOP-62 NSCLC; more than 100 µM in the assay on IGROV1 ovarian. In addition, the TGI with MDA-MB-435 was more than 100 µM; in the assay on NCI-H460 lung, more than 100 µM; with RPMI-8226 leukemia, more than 100 µM; in the assay with SK-MEL-2 melanoma it was 55.2 µM; in the assay on SR leukemia, more than 100 µM.
With `COc1ccc2c(c1C)C(=O)C(O)(CC=C(C)C)O2` (configuration not stated), the TGI with BT-549 breast, in the assay with CAKI-1 renal, in the assay on DU-145 prostate, with EKVX NSCLC, in the assay on HOP-62 NSCLC and with IGROV1 ovarian was more than 100 µM each time. In addition, the TGI in the assay with MDA-MB-435, in the assay with NCI-H460 lung, in the assay with RPMI-8226 leukemia, in the assay with SK-MEL-2 melanoma and in the assay with SR leukemia was more than 100 µM in each case.
With `COC1=C(Br)[C@H](O)[C@@]2(C=C1Br)CC(C(=O)NCCCCCN=C(N)N)=NO2`, the TGI with BT-549 breast, with DU-145 prostate, with HOP-62 NSCLC, in the assay with IGROV1 ovarian, in the assay on MDA-MB-435 and in the assay on NCI-H460 lung was more than 10 µM throughout. The TGI in the assay with RPMI-8226 leukemia, in the assay with RXF 393 renal, in the assay on SK-MEL-2 melanoma and in the assay with SR leukemia was more than 10 µM throughout.
For `CCOC(=O)c1nc2c(Cl)c3ncccc3cc2[nH]c1=O`, the TGI with BT-549 breast was 94.7 µM; with CAKI-1 renal, more than 100 µM; in the assay with DU-145 prostate it was more than 100 µM; in the assay on EKVX NSCLC, more than 100 µM; in the assay with HOP-62 NSCLC it was more than 100 µM; with IGROV1 ovarian, more than 100 µM. In addition, the TGI in the assay on MDA-MB-435 was more than 100 µM; in the assay with NCI-H460 lung it was 65.8 µM; with RXF 393 renal, more than 100 µM; with SK-MEL-2 melanoma, more than 100 µM; with SR leukemia, more than 100 µM.
On to `O=c1cc(-c2ccccc2)[nH]c2cc3c(cc12)OCO3`, for which the TGI in the assay on BT-549 breast is more than 100 µM; in the assay on DU-145 prostate, more than 100 µM; in the assay on EKVX NSCLC, more than 100 µM; in the assay on HOP-62 NSCLC it was more than 90.3 µM; with IGROV1 ovarian it was more than 100 µM; in the assay on NCI-H460 lung, more than 57.8 µM. The TGI in the assay with RPMI-8226 leukemia is more than 80 µM; with RXF 393 renal, 17.2 µM; in the assay on SK-MEL-2 melanoma, more than 93.2 µM; in the assay with SR leukemia, 67.4 µM.
Consider `CC1(C)c2ccccc2C(=O)C12CCC(=O)CC2`, for which the TGI in the assay with BT-549 breast, with CAKI-1 renal, in the assay with DU-145 prostate, in the assay with EKVX NSCLC, with HOP-62 NSCLC and with IGROV1 ovarian was more than 100 µM throughout. In addition, the TGI in the assay with NCI-H460 lung was more than 100 µM; in the assay with RXF 393 renal, 96 µM; in the assay with SK-MEL-2 melanoma, more than 100 µM; with SR leukemia, more than 100 µM.
In the case of `Cc1cccc2c1Oc1cc(Cl)ccc1C2NC(=O)CCN1CCOCC1` (configuration not stated), the TGI with BT-549 breast, with DU-145 prostate, in the assay on EKVX NSCLC, in the assay on HOP-62 NSCLC, in the assay with IGROV1 ovarian and with MDA-MB-435 was more than 100 µM throughout. In addition, the TGI in the assay with NCI-H460 lung and with SR leukemia was more than 100 µM in each case.
Turning to `CC1=NC(=Cc2ccc(O)cc2)C(=O)N1n1c(-c2ccccc2)nc2ccccc2c1=O`, the TGI with BT-549 breast, with CAKI-1 renal, in the assay with DU-145 prostate, in the assay with EKVX NSCLC, with HOP-62 NSCLC and with IGROV1 ovarian was more than 100 µM throughout. Besides, the TGI in the assay with MDA-MB-435, with NCI-H460 lung, in the assay on RPMI-8226 leukemia and in the assay with SR leukemia was more than 100 µM throughout.
Consider `CC(=O)N(C(=O)CC(=O)N/N=C\c1ccc(Br)c(N(CCC#N)CCC#N)c1)c1ccc(Cl)cc1`, for which the TGI in the assay on BT-549 breast, in the assay with CAKI-1 renal, in the assay with DU-145 prostate, in the assay with EKVX NSCLC, in the assay with HOP-62 NSCLC and in the assay with IGROV1 ovarian was more than 100 µM in each case. Besides, the TGI with MDA-MB-435, with NCI-H460 lung, in the assay with RPMI-8226 leukemia, in the assay with RXF 393 renal and with SR leukemia was more than 100 µM in each case.
For `N#CSc1nc[nH]c1C(N)=O`, the TGI in the assay with BT-549 breast is more than 100 µM; in the assay with CAKI-1 renal it was more than 81.6 µM; with DU-145 prostate, more than 100 µM; with EKVX NSCLC, more than 100 µM; in the assay with HOP-62 NSCLC it was more than 100 µM; in the assay with IGROV1 ovarian it was more than 100 µM. Further, the TGI is more than 100 µM in the assay on MDA-MB-435; more than 100 µM in the assay on NCI-H460 lung; 44.7 µM with RPMI-8226 leukemia; more than 100 µM in the assay with RXF 393 renal; more than 100 µM in the assay on SK-MEL-2 melanoma.
As for `C[C@]12CCC(=O)C=C1CC[C@@H]1C2CC[C@]2(C)c3nn(-c4ccc(F)cc4)nc3CC12` (some centres not stated), the TGI in the assay with BT-549 breast, with CAKI-1 renal, in the assay with DU-145 prostate, in the assay with EKVX NSCLC, in the assay on HOP-62 NSCLC and with IGROV1 ovarian was more than 100 µM in each case. Also, the TGI with MDA-MB-435, in the assay on NCI-H460 lung, with RXF 393 renal and in the assay with SR leukemia was more than 100 µM throughout.
With `c1cc(-c2ncc(-c3ccc4c(c3)CCCO4)o2)ccn1`, the TGI in the assay on BT-549 breast was 53.3 µM; with CAKI-1 renal, more than 100 µM; in the assay on DU-145 prostate, more than 100 µM; with EKVX NSCLC it was more than 100 µM; in the assay with HOP-62 NSCLC it was more than 100 µM; with IGROV1 ovarian, more than 100 µM. In addition, the TGI in the assay with MDA-MB-435 is 15.3 µM; in the assay on RPMI-8226 leukemia, 30.4 µM; in the assay on RXF 393 renal it was more than 100 µM; in the assay with SK-MEL-2 melanoma, 37.6 µM.
As to `Cc1cn(C2CC(ON3C(=O)c4ccccc4C3=O)C(CO)O2)c(=O)[nH]c1=O` (configuration not stated), the TGI in the assay with BT-549 breast, with DU-145 prostate, in the assay with EKVX NSCLC, with IGROV1 ovarian, in the assay on MDA-MB-435 and in the assay with NCI-H460 lung was more than 10 µM each time. Further, the TGI in the assay on RXF 393 renal, with SK-MEL-2 melanoma and in the assay with SR leukemia was more than 10 µM throughout.
